Source: article PMC12406196, “Anticoronavirus Activity of Uridine Glycoconjugates Containing a 1,2,3-Triazole Moiety” (Journal of Medicinal Chemistry, 2025)
Entries after “also recorded” stand apart in the source; their conditions may differ. Where two headings read alike, the source gives them in different places.

Experiments:
[1] = set-up: method as in not printed at the place; details: clinical use; ref not given; cited from earlier work
[2] = MTS-based cell viability assay in LR7 cells; set-up: species or system mouse; details: mouse, LR7 cells, 48 h, 0–100 μM, read-out: CC50 (MHV block)
Method: (§1) LR7, LLC-Mk2 or Vero cells were seeded in 96-well plates and cultured overnight. Next, the medium was changed to a new one supplemented with different concentrations (in triplicate) of analyzed compounds. Following the 2 days (LR7 and Vero) or 4 days (LLC-Mk-2) of incubation, CellTiter 96 AQueous nonradioactive cell proliferation assay (Promega) was performed according to the manufacturer’s instruction. The half-maximal cytotoxic concentration (CC50) was calculated as the concentration of a compound needed to reduce cell viability by 50% using GraphPad Prism software (version 5.01, GraphPad Software, San Diego, CA).

LR7 cells = test: MTS-based cell viability assay in LR7 cells; set-up: species or system mouse; details: 50 μM, uninfected LR7 cells
Method: as §1

[3] = MTS-based cell viability assay in LLC-Mk2 cells; details: Macaca mulatta, read-out: CC50 (HCoV-NL63 block)
Method: as §1

[4] = MTS-based cell viability assay in Vero cells; details: African green monkey, 96 h per table footnote, read-out: CC50 (SARS-CoV-2 block)
Method: as §1

[5] = test system: murine hepatitis virus strain A59 (MHV); test: Reduction of MHV cytopathic effect (CPE) in LR7 cells, MTS/PMS readout; assay type: cell-based
Method: LR7 cells were seeded in a 96-well plate and cultured overnight. Next, the cells were infected with MHV at an MOI value of 0.01 in medium without FBS. Following 1 h of incubation, the medium containing the virus was collected and cells were covered with a medium supplemented with different concentrations (in triplicate) of the analyzed compounds or DMSO. 24 h p.i. cells viability was evaluated by CellTiter 96 AQueous nonradioactive cell proliferation assay (Promega) according to the manufacturer’s instruction.

[6] = test system: murine hepatitis virus strain A59 (MHV); test: MHV titer in medium of infected LR7 cells, plaque assay; assay type: cell-based; details: Murine coronavirus, read-out: IC50 (MHV)
Method: LR7 or LLC-Mk2 cells were infected at a MOI of 0.01 with MHV and HCoV-NL63, respectively, and treated with selected compounds at a concentration ranging from 0 to 50 μM. Culture supernatants were collected 1 day (MHV) or 4 days (HCoV-NL63) after infection. Virus titer was determined by plaque assay.
(§2) The half-maximum inhibitory concentration value (IC50) indicating the concentration of compound needed to reduce virus titer by 50% in comparison to the control, was evaluated by GraphPad software (version 5.01, GraphPad Software, San Diego, CA).

[7] = test system: human coronavirus strain NL63 (HCoV-NL63); test: HCoV-NL63 N protein expression in LLC-Mk2 cells, Western blot and densitometry; assay type: cell-based; details: 50 μM, MOI 0.01, 4 days p.i., Western blot/densitometry
Method: LLC-Mk2 monolayers grown in 24-well plates were infected with HCoV-NL63 at an MOI value of 0.01 for 2 h. Unbound virus was removed, and cells were cultured in medium supplemented with different concentrations of compounds. Four days postinfection, cells were collected and lysed in CellLyticM Cell Lysis Reagent (Sigma). Following the protein separation by SDS-PAGE and transfer to PVDF membranes, proteins were immunoblotted using specific mouse anti-N NL63 Abs (Eurofins, Spain) or rabbit anti-β-catenin Abs (Santa Cruz), followed by antimouse or antirabbit secondary antibodies conjugated with HRP. Proteins were visualized and analyzed by chemiluminescence using the UVITEC Cambridge Alliance MINI HD detection system. The densitometric analysis of cells treated with 50 μM dose of a panel of glycoconjugates was performed based on three biological replicates of N and β-catenin immunoblots. The N protein levels were expressed as a percentage relative to DMSO-treated infected cells, while β-catenin levels were expressed as a percentage relative to noninfected control cells. The data were presented as the ratio of N/β-catenin for each sample, normalized accordingly.

[8] = test system: human coronavirus strain NL63 (HCoV-NL63); test: HCoV-NL63 titer in medium of infected LLC-Mk2 cells, foci-forming assay; assay type: cell-based; details: for IC50: read-out: IC50 (HCoV-NL63)
Method: LR7 or LLC-Mk2 cells were infected at a MOI of 0.01 with MHV and HCoV-NL63, respectively, and treated with selected compounds at a concentration ranging from 0 to 50 μM. Culture supernatants were collected 1 day (MHV) or 4 days (HCoV-NL63) after infection. […]
as §2

SARS-CoV-2 = SARS-CoV-2 infectivity in supernatants of infected Vero cells, plaque assay; assay type: cell-based; details: Severe acute respiratory syndrome coronavirus 2, Vero, read-out: IC50 (SARS-CoV-2)
Method: Vero cells were seeded in appropriate plates and allowed to reach an approximately 90% confluence. For infection, 200 μL of viral suspension containing 10^5 pfu (SARS-CoV-2 strain SARS-CoV-2/human/Czech Republic/951/2020) was added to each well and incubated for 2 h at 37 °C to allow virus adsorption. After the incubation, the viral medium was removed, and the wells were washed gently with phosphate-buffered saline (PBS). Test compounds were prepared in serial dilutions to final concentrations of 50, 25, 12.5, 6.25, 3.125, and 0 μM in the medium (DMEM containing 2% FBS). The compounds were added in quadruplicate to the infected cells. The plates were then incubated for 48 h at 37 °C. Following the 48 h treatment period, the supernatants were removed, and plaque assays in Vero E6 cells were performed to assess viral titers. Cells were fixed and stained 4 days after infection to visualize plaques, as described previously.
as §2

[9] = test system: SC-VLP entry into HEK-hACE2 cells; test: SARS-CoV-2 VLP (SC-VLP) internalization assay in HEK-hACE2 cells, luciferase; assay type: cell-based; details: 12.5 μM during SC-VLP production
HCoV-NL63 RNA synthesis = test: HCoV-NL63 RNA level in infected LLC-Mk2 cells, RT-PCR; assay type: cell-based, human coronavirus NL63; details: MOI 0.01, 96 h p.i.
Method: LR7 or LLC-Mk2 were cultured in 12-well plate overnight. Next, LR7 cells were infected with MHV at an MOI value of 1 for 1 h or LLC-Mk2 cells were infected with HCoV-NL63 at an MOI value of 0.01 for 2 h. Following removal of unbound virus, cells were cultured with medium supplemented with different concentrations of selected compounds. 8 h p.i. (MHV) or 96 h p.i. (HCoV-NL63) cells were collected and total RNA was isolated by CoV RNA kit (A&A Biotechnology, Poland) according to the manufacturer’s instruction. To evaluate levels of viral RNA in infected cells Qiagen One-Step RT-PCR reaction was performed. Following reverse transcription, the PCR reaction was carried out using primers: F: […], R: […] for amplification of a fragment of HCoV-NL63 genome (position: 26418–26960 bp NC_005831.2) and F: […] and R: […] for amplification of a fragment of MHV genome (position: 30341–30902 bp FJ647225.1). For internal control fragment of β-actin mRNA was reverse transcribed and amplified using primers For: […] and Rev: […].

[10] = test system: murine hepatitis virus (MHV); set-up: method as in not printed at the place; details: tunicamycin treatment; ref not given; cited from earlier work

Question: With CCCC(=O)O[C@H]1CN2CC[C@H](O)[C@@H]2[C@@H](O)[C@@H]1O [celgosivir] as the compound, how does the “adverse effects in humans” value [1] read?
Answer: diarrhea, weight loss, and flatulence

Question: For CCCCN1C[C@H](O)[C@@H](O)[C@H](O)[C@H]1CO [miglustat], which “adverse effects in humans” value [1] is on record?
Answer: diarrhea, weight loss, and flatulence

Question: For CC(=O)OC[C@H]1O[C@@H](OCc2cn(C[C@H]3O[C@@H](n4ccc(=O)[nH]c4=O)[C@H](O[Si](C)(C)C(C)(C)C)[C@@H]3O[Si](C)(C)C(C)(C)C)nn2)[C@H](OC(C)=O)[C@@H](OC(C)=O)[C@H]1OC(C)=O [Compound 15, 2′,3′-di-O-tert-Butyldimethylsilyl-5′-deoxy-5′-[4-(2″,3″,4″,6″-tetra-O-acetyl-β-D-galactopyranosyloxymethyl)-1,2-3-triazol-1-yl]-uridine], which CC50 at 48 h [2] is on record?
Answer: 134 µM

Question: And the “reduction of cell viability (cytotoxicity in uninfected cells)” value (LR7 cells)?
Answer: 10–30%

Question: What about the CC50 at 96 h [3] of the same compound?
Answer: 49.8 µM

Question: What about the CC50 at 96 h [4] of the same compound?
Answer: > 100 µM

Question: And the “protection against MHV-induced CPE” value ([5]; 50 μM, MOI 0.01, 24 h)?
Answer: significantly reduced cell death

Question: What about the “concentration above which MHV-induced CPE was significantly reduced” value ([5]; MOI 0.01, 24 h p.i.) of the same compound?
Answer: above 12.5 μM

Question: What about the IC50 ([6]; LR7, 24 h) of the same compound?
Answer: 7.6 µM

Question: What about the IC50 ([6]; LR7, supplementary CSV, decimal comma) of the same compound?
Answer: 7.62 µM

Question: And the “HCoV-NL63 N protein level” value [7]?
Answer: significantly reduced; also recorded: No N protein was detected

Question: And the IC50 ([8]; LLC-MK2, 96 h)?
Answer: 6.8 µM

Question: And the IC50 ([8]; LLC-MK2, supplementary CSV, decimal comma)?
Answer: 6.79 µM

Question: What about the “antiviral efficacy against HCoV-NL63 compared with compound 24” value ([8]; dose-response 0–25 μM, LLC-Mk2 cells) of the same compound?
Answer: slightly lower activity

Question: And the IC50 (SARS-CoV-2; 48 h)?
Answer: ~27.4 µM

Question: And the IC50 (SARS-CoV-2; supplementary CSV, decimal comma)?
Answer: 27.4 µM

Question: What about the “reduction of SC-VLP entry compared with the control” value [9] of the same compound?
Answer: 80%

Question: What about the “concentration that effectively suppressed HCoV-NL63 RNA synthesis” value (HCoV-NL63 RNA synthesis) of the same compound?
Answer: 12.5 µM

Question: Which “effect on MHV viral titers” value [10] does the source give for tunicamycin here?
Answer: significantly reducing viral titers
